# Reference: patent publication US20240050590A1, “METHODS AND COMPOSITIONS TO REGULATE CHOLESTEROL EFFLUX TO PREVENT, TREAT, OR CURE MACULAR DEGENERATION” (The Trustees of Columbia University in the City of New York, priority 2021, published 2024)
# “Also recorded” adds a separate entry of the source.
# Experiments:
# Format in all cases: cell-based, human
# [1] = tested on: CES1 expression in EFEMP1^WT iRPE cells; assay: Western blot of CES1 expression in normal (EFEMP1^WT) iRPE cells after treatment with agonists and antagonists; conditions: EFEMP1^WT iRPE cells from healthy donor, 72 h treatment, vs untreated control; LY294002 10 μM, GW4064 5 μM, GW3965 3 μM
# Procedure: (§1) Immunoblot To verify the differentiation of iRPE, CRALBP (Ab15051, Abcam) and RPE65 (401.8B11.3D9, Novas Biologicals) antibodies were used to detect mature RPE markers including CRALBP and RPE65 in iRPE cell lysates via western blot. To determine EFEMP1 expression in iRPE, both cell lysates and culture supernatant were assayed using anti-EFEMP1 antibody (MA5-25740, Thermo Fisher Scientific). To detect CES1 expression in iRPE, anti-CES1 antibody (AF4920, R&D) was used. Anti-alpha tubulin (T5168, Sigma Aldrich), anti-beta actin (A5316, Sigma), or anti-GAPDH (5174, Cell Signaling) antibodies were used to detect house-keeping proteins. The cell lysates were collected using RIPA buffer (Thermo Fisher Scientific).
# To understand the upstream regulators of CES1 expression, the iRPE cells from healthy donor were treated with Gefitnib ([…], Sigma Aldrich), ML385 ([…], Sigma Aldrich), LY294002 (10 μM, Sigma Aldrich), GW4064 (5 μM, Sigma Aldrich), or GW3965 (3 μM, Sigma Aldrich) for 72 h. Anti-CES1 (AF4920, R&D) and anti-alpha tubulin (T5168, Sigma Aldrich) antibodies were used to detect CES1 and tubulin expression, respectively. The signal was detected using Immobilon Western Chemiluminescent HRP Substrate (Millipore). The blot was quantified using ImageJ for signal intensity.
# iRPE cells [2] = assay: Cholesterol efflux assay in iRPE cells; set-up: dose or concentration left out as unconfirmed; conditions: EFEMP1^R345W iRPE
# Procedure: Cholesterol efflux assay Cholesterol Efflux Assay Kit (Abcam) was used to determine the cholesterol efflux rate in iRPE according to the manufacturer's protocol. In brief, fluorescence-labeled cholesterol was added to iRPE culture and incubated overnight. On the next day, the cells were washed twice with PBS, and the efflux of cholesterol was induced by 2% human serum. At designated time points, the culture supernatant and cell lysate were collected and measured by fluorescence at Ex/Em: 482/515 nm. The percentage of cholesterol efflux was calculated by fluorescence intensity of media fluorescence/(fluorescence intensity of cell lysate+media)×100.
# (§2) Lentiviral transduction For the knockdown of CES1 (MIM: 114835) in iRPE cells, the iRPE cells from healthy donor were cultured in 6-well plate. The lentiviral particles carrying CES1 shRNA (Locus ID 1066, Origene) were transduced into the iRPE cells at a MOI of 10 overnight. To establish fair comparison, the control iRPE cells were transduced with viral particles expressing scramble shRNA. The medium was refreshed the following day, and the cell were incubated for 7 days before analysis. To achieve overexpression of CES1 in iRPE cells, lentiviral particles (Origene) expressing CMV promoter-driven CES1 (GenBank: NM_001025194) were transduced following the same procedure.
# [3] = tested on: CES1 expression in EFEMP1^R345W iRPE cells; assay: Western blot of CES1 expression in EFEMP1^R345W iRPE cells treated with EGF; conditions: 100 nM EGF, 72 h incubation, vs untreated cells
# Procedure: as §1
# iRPE cells [4] = assay: Nile red staining and quantification of intracellular lipid droplets in iRPE cells; set-up: amount of lipid droplets: dose or concentration left out as unconfirmed; conditions: EFEMP1^R345W iRPE, 2 weeks, vs untreated
# Procedure: Nile red staining To stain the intracellular neutral lipid, the iRPE cell cultures were treated with […] Nile red (Sigma Aldrich) for 30 min at 37° C. The cells were washed with PBS three times before microscopy observation.
# Since mature iRPE culture is usually 100% confluent, the Nile red-positively stained lipid droplets were quantified using ImageJ in a fixed area of 90,000 square micrometers for the number and size of Nile red-positive signals. Fluorescent particles smaller than 0.0001 square micrometers was excluded as noise.
# as §2
compound,measurement,setting,value
O=C(O)Cc1cccc(OCCCN(Cc2cccc(C(F)(F)F)c2Cl)CC(c2ccccc2)c2ccccc2)c1 [GW3965],CES1 expression level (western blot),[1],no change in CES1 expression
CC(C)c1onc(-c2c(Cl)cccc2Cl)c1COc1ccc(/C=C/c2cccc(C(=O)O)c2)c(Cl)c1 [GW4064],CES1 expression level (western blot),[1],no change in CES1 expression
Cc1ccccc1C(=O)N1CCc2cc(-c3nc(NC(=O)Cc4ccc5c(c4)OCO5)sc3C)ccc21 [ML385],CES1 expression level (western blot),[1],only LY294002 reduced CES1 expression
COc1cc2ncnc(Nc3ccc(F)c(Cl)c3)c2cc1OCCCN1CCOCC1 [gefitinib],CES1 expression level (western blot),[1],remarkably reduced
epidermal growth factor [EGF],cholesterol efflux (in words),"iRPE cells [2]; EGF for two weeks, vs untreated",improve cholesterol efflux
same,increase in cholesterol efflux,"iRPE cells [2]; EGF, 2 weeks, vs untreated control",26%
same,CES1 level (western blot),[3],remarkably higher
same,lipid droplet size,iRPE cells [4]; 100 mM EGF,not obvious
same,amount of lipid droplets,iRPE cells [4]; EGF,significant decrease; also recorded: ameliorates intracellular lipid droplet accumulation
